# Measured values reported in ChEMBL document CHEMBL2375323, “Cu(OTf)2 catalyzed three component reaction: efficient synthesis of spiro[indoline-3,4'-pyrano[3,2-b]pyran derivatives and their anticancer potency towards A549 human lung cancer cell lines” (Bioorg Med Chem Lett, 2013).
# Tested on: A549
# Experiment: Cytotoxicity against human A549 cells assessed as growth inhibition by MTT assay
# Type: functional, cell-based
row,Compound,IC50
1,COC(=O)C1=C(N)Oc2c(oc(CO)cc2=O)C12C(=O)Nc1ccc(C)cc12 (centres undefined),62.8 µM
2,CCOC(=O)C1=C(N)Oc2c(oc(CO)cc2=O)C12C(=O)Nc1ccccc12 (centres undefined),> 200 µM
3,COC(=O)C1=C(N)Oc2c(oc(CO)cc2=O)C12C(=O)N(Cc1ccccc1)c1ccccc12 (centres undefined),55.1 µM
4,CCOC(=O)C1=C(N)Oc2c(oc(CO)cc2=O)C12C(=O)N(C)c1ccccc12 (centres undefined),55.8 µM
5,CN1C(=O)C2(C(C#N)=C(N)Oc3c2oc(CO)cc3=O)c2ccccc21 (centres undefined),51.1 µM
6,CCOC(=O)C1=C(N)Oc2c(oc(CO)cc2=O)C12C(=O)Nc1ccc(Br)cc12 (centres undefined),52.8 µM
7,N#CC1=C(N)Oc2c(oc(CO)cc2=O)C12C(=O)Nc1ccc(F)cc12 (centres undefined),> 200 µM
8,CCOC(=O)C1=C(N)Oc2c(oc(CO)cc2=O)C12C(=O)Nc1ccc(Cl)cc12 (centres undefined),53.1 µM
9,C=CCN1C(=O)C2(C(C(=O)OCC)=C(N)Oc3c2oc(CO)cc3=O)c2ccccc21 (centres undefined),54.6 µM
10,N#CC1=C(N)Oc2c(oc(CO)cc2=O)C12C(=O)Nc1ccccc12 (centres undefined),52.8 µM
11,N#CC1=C(N)Oc2c(oc(CO)cc2=O)C12C(=O)Nc1ccc(Br)cc12 (centres undefined),> 200 µM
12,CCOC(=O)C1=C(N)Oc2c(oc(CO)cc2=O)C12C(=O)Nc1ccc(C)cc12 (centres undefined),52.9 µM
13,C=CCN1C(=O)C2(C(C#N)=C(N)Oc3c2oc(CO)cc3=O)c2ccccc21 (centres undefined),59.4 µM
14,C#CCN1C(=O)C2(C(C#N)=C(N)Oc3c2oc(CO)cc3=O)c2ccccc21 (centres undefined),> 200 µM
15,N#CC1=C(N)Oc2c(oc(CO)cc2=O)C12C(=O)Nc1ccc(Cl)cc12 (centres undefined),51.4 µM
16,CCOC(=O)C1=C(N)Oc2c(oc(CO)cc2=O)C12C(=O)Nc1ccc(F)cc12 (centres undefined),> 200 µM
17,COC(=O)C1=C(N)Oc2c(oc(CO)cc2=O)C12C(=O)Nc1ccc([N+](=O)[O-])cc12 (centres undefined),55.9 µM
18,N#CC1=C(N)Oc2c(oc(CO)cc2=O)C12C(=O)N(Cc1ccccc1)c1ccccc12 (centres undefined),> 200 µM
19,COC(=O)C1=C(N)Oc2c(oc(CO)cc2=O)C12C(=O)Nc1ccccc12 (centres undefined),56.2 µM
